Results as given in patent US6433197B1, “Substituted oxygen alicyclic compounds, including methods for synthesis thereof” (Millennium Pharmaceuticals, Inc., priority 1998, dated 2002).

Test system: Leukotriene B4
Assay: Human whole blood assay, Leukotriene B4 inhibition
Type: cell-based
Conditions: heparinized human whole blood; pre-incubated 15 minutes at 37° C.; stimulated with 50 μM calcium ionphor for 30 minutes at 37° C.; EIA; read-out: IC50 (Leukotriene B4 inhibition, LTB4 content of plasma)
Method: The following compound of the invention was tested for Leukotriene B4 inhibition in the human whole blood assay detailed below. [drawing 40]
Heparinized human whole blood was pre-incubated with selected concentrations of the test compound for 15 minutes at 37° C. and stimulated with 50 μM calcium ionphor for 30 minutes at 37° C. The reaction was stopped by placing samples on ice and cold centrifugation at 4° C. for 10 minutes at 1100×g. Test sample plasma was diluted in buffer and assayed for LTB4 content. Test compound activity was determined as per Cayman […] EIA and evaluated as IC50 [nM].

NC(=O)N(O)CC#CC1CC[C@@H](Cc2ccc(F)cc2)O1 (stereo partly shown)
IC50: 0.148 µM
